Consider one molecule from US7390783B2, “Charged phospholipid compositions and methods for their use” (Ottawa Heart Institute Research Corporation, priority 2000, dated 2008).

Molecules are shown by their SMILES.

For one experiment, the target named is T1, lipoprotein lipase (Homo sapiens, UniProt P06858).
T1 sequence (P06858 28-475): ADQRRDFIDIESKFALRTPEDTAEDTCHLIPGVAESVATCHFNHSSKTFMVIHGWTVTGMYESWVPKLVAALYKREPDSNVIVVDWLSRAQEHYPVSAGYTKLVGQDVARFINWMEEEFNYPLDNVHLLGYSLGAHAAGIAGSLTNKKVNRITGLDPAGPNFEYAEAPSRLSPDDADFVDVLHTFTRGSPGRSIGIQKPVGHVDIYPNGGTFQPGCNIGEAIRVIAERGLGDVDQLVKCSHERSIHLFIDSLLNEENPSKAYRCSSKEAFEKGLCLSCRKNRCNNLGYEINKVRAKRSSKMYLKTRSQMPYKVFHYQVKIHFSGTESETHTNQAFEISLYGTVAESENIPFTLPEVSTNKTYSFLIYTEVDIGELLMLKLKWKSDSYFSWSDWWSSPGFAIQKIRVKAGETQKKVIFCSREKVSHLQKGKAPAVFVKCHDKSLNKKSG
Briefly: Lipid hydrolysis by lipoprotein lipase in plasma enriched with charged lipid. The following applies: not shown. Format: biochemical. The source says: Referring now to FIG. 10, there is shown the effect of lipoprotein charge on hepatic lipase. High density lipoprotein particles were enriched to contain various amounts of anionic or cationic lipids and then characterized as substrates for pure human hepatic lipase. Decreasing the net negative charge on the lipoprotein was associated with a reduction in the lipolytic activity of is hepatic lipase. Lipoprotein charge can also be used to regulate lipoprotein lipase. […] Lipid hydrolysis by hepatic or lipoprotein lipase can therefore be affected by alterations in the charge properties of plasma lipoproteins.

The test system of experiment [1] is HDL, LDL and VLDL cholesterol. The experiment in a line: PI injections into hypercholesterolemic (cholesterol-fed) rabbits: lipoprotein cholesterol levels. Format: in vivo, rabbit. The conditions noted are these: 36 mg 2× daily for 7 days. The protocol:
Referring now to FIG. 8, there is graphically depicted the effect of PI injection on lipoprotein cholesterol levels in hypercholesterolemic rabbits. Rabbits were fed a diet enriched in cholesterol for a period of 4 weeks to increase the levels of cholesterol in the LDL and VLDL particles in the bloodstream. One half of the study rabbits were then injected with 36 mg of PI 2× daily for 7 days. On day 7, plasma samples were drawn and lipoproteins were fractionated by size exclusion chromatography on two Superose 6 columns. Shown are gel filtration profiles for the different rabbit plasmas, which illustrate the levels of cholesterol in the various lipoprotein fractions. The untreated hypercholesterolemic rabbit plasma sample is shown to have high levels of LDL and VLDL cholesterol. PI injections caused a greater than 7-fold reduction in VLDL cholesterol and about a 2.5-fold reduction in LDL cholesterol levels over the 7 day period. […] PI therefore can be used to treat hypercholesterolemia and reduce plasma LDL and VLDL cholesterol levels.

In the next experiment the test system is biliary FC output. Briefly: Biliary FC output after injection of PI or PC vesicles containing [^3H]-FC. Type of experiment: in vivo, rabbit. The conditions noted are these: sacrificed at 30 min. As to the method:
Rabbits are injected with 40 μmol PI or PC vesicles containing 400 μCi […]. Animals are sacrificed at 30 min, and bile is aspirated from the gall bladder. In addition the livers are harvested, homogenized and tissue radioactivity determined. Sterol excretion in the faeces is measured similarly except that faecal cholesterol levels are measured over a time period of 96 hours.
Referring now to FIG. 6, there is shown the effect of PI on biliary FC output after rabbits are injected with PI or PC vesicles containing [^3H]-FC. […] Without wishing to be bound by theory, PI may enhance the clearance of cholesterol from plasma and promote its uptake and accumulation in the liver. In addition, PI injection appears to be associated with an increase output of cholesterol into bile. About 20-fold enhanced output of cholesterol into bile is observed (FIG. 6).

The test system of experiment [2] is VLDL, LDL and HDL in human plasma. The experiment in a line: Lipoprotein charge in human plasma incubated with PI or DOTAP vesicles. Format: biochemical. The following applies: 24 h at 4° C.; for Lipoprotein Surface Charge LDL: no lipid 2.5; for Lipoprotein Surface Charge VLDL: no lipid 5.5; for Lipoprotein Surface Charge HDL: no lipid 11.8. The protocol:
Different concentrations as shown below of negatively charged phospholipid (PI) or positively charged phospholipid (DOTAP) were added to human plasma and the surface charge on the lipoproteins was determined. The human plasma was incubated with PI or dioleoyl trimethylammonium-propane (DOTAP) vesicles for 24 h at 4° C. and then electrophoresed on 0.5% agarose. Lipoprotein charge was calculated from electrokinetic analyses.

For experiment [3], the system named is lipoprotein CE and FC in whole blood (red blood cells). The experiment in a line: Incubation of whole blood with PC or PI vesicles: lipoprotein CE and FC. Format: cell-based, human. As to the method: Referring now to FIG. 4, there is graphically depicted the effect of PI or PC vesicles on lipoprotein CE and FC. Incubation of whole blood with PC vesicles results in a 60% increase in the CE content of the lipoproteins, while FC content is reduced by about 10%. […] Negatively charged phospholipids appeared to promote a reciprocal exchange of CE for FC between red blood cells and the lipoprotein particles. […] It has previously been taught that red blood cells cannot store CE and therefore utilize a membrane-bound CE hydrolase to maintain membrane FC levels. Without wishing to be bound by theory, the results therefore indicate that PI stimulates the degradation of lipoprotein CE.

Regarding `CCCCCCCC/C=C\CCCCCCCC(=O)O[C@H](COC(=O)CCCCCCCCCCCCCCC)COP(=O)(O)O[C@@H]1[C@H](O)[C@H](O)[C@@H](O)[C@H](O)[C@H]1O` [PI, 1-palmitoyl-2-oleoyl phosphatidylinositol], the “effect on lipid hydrolysis by lipoprotein lipase” value at lipoprotein lipase is given as “stimulate lipid hydrolysis”. For the same molecule, in experiment [1], the “effect on amount of cholesterol in the HDL particles” value is “slightly increased”, the “reduction in LDL cholesterol levels” value is approximately 2.5 fold and the “reduction in VLDL cholesterol” value is “greater than 7 fold”. Besides, in the experiment with biliary FC output, the “[^3H]-FC in plasma and liver in comparison to PC” value is “reduction of [^3H]-FC in plasma, and an elevation of [^3H]-FC in the liver”. The “enhanced output of cholesterol into bile” value with biliary FC output (in comparison to PC) is listed as “About 20 fold”. For the same molecule, in experiment [2] (5 mg/ml), the “Lipoprotein Surface Charge LDL” value is 2.9 -mV, the “Lipoprotein Surface Charge VLDL” value is given as 6.3 -mV and the “Lipoprotein Surface Charge HDL” value is recorded as 12.4 -mV. Further, in experiment [2] (10 mg/ml), the “Lipoprotein Surface Charge LDL” value is recorded as 3.3 -mV, the “Lipoprotein Surface Charge VLDL” value is listed as 6.8 -mV and the “Lipoprotein Surface Charge HDL” value was 12.8 -mV. In experiment [2] (50 mg/ml), the “Lipoprotein Surface Charge LDL” value is given as 3.4 -mV, the “Lipoprotein Surface Charge VLDL” value is 6.9 -mV and the “Lipoprotein Surface Charge HDL” value is reported as 13.2 -mV. Further, in experiment [2] (100 mg/ml), the “Lipoprotein Surface Charge LDL” value is on record as 3.6 -mV, the “Lipoprotein Surface Charge VLDL” value is given as 7.1 -mV and the “Lipoprotein Surface Charge HDL” value was 13.4 -mV. For the same molecule, in experiment [3], the “increase of lipoprotein FC levels” value is given as “about 40%” and the “reduction of lipoprotein CE” value is reported as “about 40%”.
